A word on the IC50: it is the concentration that inhibits the measured activity by half.

The test system of series [1] is Bcap37. The experiment in a line: Cytotoxicity against human Bcap37 cells after 72 hrs by MTT assay. The conditions noted are these: Bcap37, 72 h. In kind it is functional, cell-based. For orientation: Tetrazolium dyes change colour on reduction, which living cells bring about.
In series [2] the test system is MGC-803. The experiment in a line: Cytotoxicity against human MGC803 cells after 72 hrs by MTT assay. In kind it is functional, cell-based. The following applies: MGC-803, 72 h.
The subject of series [3] is MCF7. The experiment in a line: Cytotoxicity against human MCF7 cells after 72 hrs by MTT assay. In kind it is functional, cell-based. The following applies: MCF7, 72 h.
In series [4] the test system is PC-3. Nature of the series: Cytotoxicity against human PC3 cells after 72 hrs by MTT assay. In kind it is functional, cell-based. The conditions noted are these: PC-3, 72 h.
Series [5] has as its system A-375. The experiment in a line: Cytotoxicity against human A375 cells after 72 hrs by MTT assay. The conditions noted are these: A-375, 72 h. It is filed as functional, cell-based.
For series [6], the system named is Bcap37. The experiment in a line: Selectivity index, ratio of IC50 for mouse NIH/3T3 cells to IC50 for human Bcap37 cells. It is filed as functional.
A short description of series [7]: Cytotoxicity against mouse NIH/3T3 cells after 72 hrs by MTT assay. In kind it is cell-based. The conditions noted are these: nih3t3, 72 h.
Series [8] concerns MCF7. Nature of the series: Selectivity index, ratio of IC50 for mouse NIH/3T3 cells to IC50 for human MCF7 cells. In kind it is functional.
Series [9] relates to MGC-803. The experiment in a line: Selectivity index, ratio of IC50 for mouse NIH/3T3 cells to IC50 for human MGC803 cells. In kind it is functional.
For series [10], the system named is PC-3. The experiment in a line: Selectivity index, ratio of IC50 for mouse NIH/3T3 cells to IC50 for human PC3 cells. It is filed as functional.
Series [11] concerns A-375. The experiment in a line: Selectivity index, ratio of IC50 for mouse NIH/3T3 cells to IC50 for human A375 cells. In kind it is functional.
Series [12] concerns MGC-803. Nature of the series: Induction of apoptosis in human MGC803 cells assessed as compact and condensed chromatin at 10 uM after 48 hrs using Hoechst 33258 staining by fluorescence microscopic analysis. In kind it is functional, cell-based.
Series [13] concerns MGC-803. Nature of the series: Induction of apoptosis in human MGC803 cells assessed as formation of nicks in DNA at 10 uM after 48 hrs by TUNNEL assay. In kind it is functional, cell-based.

Structures are written as SMILES. Activity calls are given as the source filed them. The calls are words filed in the database; no cut-off is given here. Bounds are passed on as bounds.

On to `C=C(C)[C@@H]1CC[C@]2(CO)CC[C@]3(C)[C@H](CC[C@@H]4[C@@]5(C)CC[C@H](O)C(C)(C)[C@@H]5CC[C@]43C)[C@@H]12` [BETULIN], for which the IC50 in the series on Bcap37 [1] came to 25.5 µM; in the series with MGC-803 [2] it was 30.2 µM; with MCF7 [3], 19.3 µM; with PC-3 [4], 22.4 µM; in the series with A-375 [5], 28 µM.
As for `C=C(C)[C@@H]1CC[C@]2(COC(=O)Cc3ccc(Cl)cc3)CC[C@]3(C)[C@H](CC[C@@H]4[C@@]5(C)CC[C@H](O)C(C)(C)[C@@H]5CC[C@]43C)[C@@H]12`, the IC50 with Bcap37 [1], with MGC-803 [2], in the series with MCF7 [3], in the series on PC-3 [4] and in the series with A-375 [5] was more than 100 µM throughout.
Take `C=C(C)[C@@H]1CC[C@]2(COC(=O)c3ccccc3)CC[C@]3(C)[C@H](CC[C@@H]4[C@@]5(C)CC[C@H](OC(=O)c6ccccc6)C(C)(C)[C@@H]5CC[C@]43C)[C@@H]12`: the half-inhibitory concentration (IC50) with Bcap37 [1], in the series on MGC-803 [2], with MCF7 [3], with PC-3 [4] and in the series on A-375 [5] was more than 100 µM each time.
Turning to `C=C(C)[C@@H]1CC[C@]2(COC(=O)CCC(=O)N(CC)CC)CC[C@]3(C)[C@H](CC[C@@H]4[C@@]5(C)CC[C@H](O)C(C)(C)[C@@H]5CC[C@]43C)[C@@H]12`, the concentration for half-maximal inhibition (IC50) in the series on Bcap37 [1] was 6.7 µM; in the series with MGC-803 [2], 8.5 µM; in the series with MCF7 [3] it was 9.2 µM; with PC-3 [4], 9.6 µM; in the series on A-375 [5], 10.3 µM. Further, the “Ratio IC50” value in the series on Bcap37 [6] is on record as 9.25; in the series with MCF7 [8], 6.73; in the series on MGC-803 [9], 7.29; in the series on PC-3 [10], 6.45; in the series on A-375 [11], 6.01. The Activity entry in series [7] was “Non-toxic”.
With `C=C(C)[C@@H]1CC[C@]2(COC(=O)c3ccccc3Cl)CC[C@]3(C)[C@H](CC[C@@H]4[C@@]5(C)CC[C@H](OC(=O)c6ccccc6Cl)C(C)(C)[C@@H]5CC[C@]43C)[C@@H]12`, the IC50 in the series with Bcap37 [1], in the series on MGC-803 [2], in the series with MCF7 [3], with PC-3 [4] and in the series on A-375 [5] was more than 100 µM each time.
Take `C=C(C)[C@@H]1CC[C@]2(COC(=O)c3ccccc3)CC[C@]3(C)[C@H](CC[C@@H]4[C@@]5(C)CC[C@H](O)C(C)(C)[C@@H]5CC[C@]43C)[C@@H]12`: the IC50 with Bcap37 [1], in the series with MGC-803 [2], in the series with MCF7 [3], in the series on PC-3 [4] and with A-375 [5] was more than 100 µM each time.
In the case of `C=C(C)[C@@H]1CC[C@]2(COC(=O)CCC(=O)N3CCOCC3)CC[C@]3(C)[C@H](CC[C@@H]4[C@@]5(C)CC[C@H](O)C(C)(C)[C@@H]5CC[C@]43C)[C@@H]12`, the IC50 with Bcap37 [1] was 6.4 µM; in the series on MGC-803 [2] it was 9.2 µM; with MCF7 [3], 11.5 µM; in the series on PC-3 [4], 11.2 µM; in the series on A-375 [5], 18.5 µM. Besides, the “Ratio IC50” value with Bcap37 [6] is 8.97; in the series on MCF7 [8] it was 4.99; in the series on MGC-803 [9] it was 6.23; with PC-3 [10] it was 5.12; in the series with A-375 [11], 3.1. Moreover, the Activity entry in series [7] is recorded as “Non-toxic”.
For the molecule `C=C(C)[C@@H]1CC[C@]2(COC(=O)/C=C/c3ccccc3)CC[C@]3(C)[C@H](CC[C@@H]4[C@@]5(C)CC[C@H](O)C(C)(C)[C@@H]5CC[C@]43C)[C@@H]12`, the IC50 with Bcap37 [1], in the series on MGC-803 [2], in the series with MCF7 [3], in the series on PC-3 [4] and in the series with A-375 [5] was more than 100 µM throughout.
For `C=C(C)[C@@H]1CC[C@]2(COC(=O)CCC(=O)N3CCCC3)CC[C@]3(C)[C@H](CC[C@@H]4[C@@]5(C)CC[C@H](O)C(C)(C)[C@@H]5CC[C@]43C)[C@@H]12`, the IC50 in the series with Bcap37 [1] was 7.9 µM; in the series on MGC-803 [2], 8.9 µM; with MCF7 [3] it was 10.1 µM; in the series with PC-3 [4] it was 8.3 µM; in the series on A-375 [5], 12.6 µM. For the same molecule, the “Ratio IC50” value with Bcap37 [6] was 5.6; with MCF7 [8], 4.38; in the series on MGC-803 [9] it was 4.97; in the series on PC-3 [10] it was 5.33; with A-375 [11], 3.52. In addition, the Activity entry in [7] is recorded as “Non-toxic”.
For `C=C(C)[C@@H]1CC[C@]2(COC(=O)CCC(=O)O)CC[C@]3(C)[C@H](CC[C@@H]4[C@@]5(C)CC[C@H](O)C(C)(C)[C@@H]5CC[C@]43C)[C@@H]12`, the IC50 in the series on Bcap37 [1] is 15.7 µM; with MGC-803 [2], 11.3 µM; with MCF7 [3] it was 14.5 µM; in the series on PC-3 [4], 12.5 µM; with A-375 [5], 17.9 µM. Also, the “Ratio IC50” value turned out to be 4.64 with Bcap37 [6]; 5.02 in the series on MCF7 [8]; 6.45 in the series on MGC-803 [9]; 5.83 in the series with PC-3 [10]; 4.07 in the series on A-375 [11]. The Activity result in series [7] is listed as “Non-toxic”.
As to `C=C(C)[C@@H]1CC[C@]2(COC(=O)c3ccccc3C(F)(F)F)CC[C@]3(C)[C@H](CC[C@@H]4[C@@]5(C)CC[C@H](OC(=O)c6ccccc6C(F)(F)F)C(C)(C)[C@@H]5CC[C@]43C)[C@@H]12`, the IC50 in the series on Bcap37 [1], in the series with MGC-803 [2], with MCF7 [3], with PC-3 [4] and with A-375 [5] was more than 100 µM each time.
Consider `C=C(C)[C@@H]1CC[C@]2(COC(=O)c3cccc([N+](=O)[O-])c3)CC[C@]3(C)[C@H](CC[C@@H]4[C@@]5(C)CC[C@H](OC(=O)c6cccc([N+](=O)[O-])c6)C(C)(C)[C@@H]5CC[C@]43C)[C@@H]12`, for which the IC50 in the series on Bcap37 [1], in the series with MGC-803 [2], with MCF7 [3], in the series on PC-3 [4] and in the series with A-375 [5] was more than 100 µM throughout.
In the case of `C=C(C)[C@@H]1CC[C@]2(COC(=O)/C=C/C(=O)O)CC[C@]3(C)[C@H](CC[C@@H]4[C@@]5(C)CC[C@H](O)C(C)(C)[C@@H]5CC[C@]43C)[C@@H]12`, the IC50 in the series on Bcap37 [1] was found to be 18.3 µM; in the series with MGC-803 [2] it was 21.3 µM; with MCF7 [3], 17.1 µM; with PC-3 [4], 25.8 µM; in the series on A-375 [5], 23.2 µM. Moreover, the “Ratio IC50” value with Bcap37 [6], with MCF7 [8], in the series with MGC-803 [9], in the series on PC-3 [10] and in the series with A-375 [11] was more than 3 in each case. Moreover, in series [7], the Activity result was “Toxic”.
With `C=C(C)[C@@H]1CC[C@]2(COC(=O)c3ccccc3C)CC[C@]3(C)[C@H](CC[C@@H]4[C@@]5(C)CC[C@H](O)C(C)(C)[C@@H]5CC[C@]43C)[C@@H]12`, the half-inhibitory concentration (IC50) with Bcap37 [1], with MGC-803 [2], with MCF7 [3], with PC-3 [4] and in the series with A-375 [5] was more than 100 µM each time.
For `C=C(C)[C@@H]1CC[C@]2(COC(=O)c3ccccc3C(F)(F)F)CC[C@]3(C)[C@H](CC[C@@H]4[C@@]5(C)CC[C@H](O)C(C)(C)[C@@H]5CC[C@]43C)[C@@H]12`, the IC50 in the series on Bcap37 [1], in the series on MGC-803 [2], with MCF7 [3], in the series on PC-3 [4] and in the series on A-375 [5] was more than 100 µM throughout.
In the case of `C=C(C)[C@@H]1CC[C@]2(COC(=O)c3cccc(Cl)c3)CC[C@]3(C)[C@H](CC[C@@H]4[C@@]5(C)CC[C@H](O)C(C)(C)[C@@H]5CC[C@]43C)[C@@H]12`, the half-inhibitory concentration (IC50) in the series on Bcap37 [1], in the series on MGC-803 [2], with MCF7 [3], in the series with PC-3 [4] and in the series on A-375 [5] was more than 100 µM in each case.
Consider `C=C(C)[C@@H]1CC[C@]2(COC(=O)c3ccc(F)cc3)CC[C@]3(C)[C@H](CC[C@@H]4[C@@]5(C)CC[C@H](O)C(C)(C)[C@@H]5CC[C@]43C)[C@@H]12`, for which the 50% inhibitory concentration (IC50) with Bcap37 [1], in the series on MGC-803 [2], in the series with MCF7 [3], in the series on PC-3 [4] and in the series on A-375 [5] was more than 100 µM throughout.
`C=C(C)[C@@H]1CC[C@]2(COC(=O)/C=C/C(=O)N3CCCCC3)CC[C@]3(C)[C@H](CC[C@@H]4[C@@]5(C)CC[C@H](O)C(C)(C)[C@@H]5CC[C@]43C)[C@@H]12`: the IC50 in the series on Bcap37 [1] is 7.4 µM; in the series on MGC-803 [2], 5.3 µM; with MCF7 [3], 6.3 µM; in the series with PC-3 [4], 9.6 µM; in the series with A-375 [5], 14.4 µM. Besides, the “Ratio IC50” value in the series with Bcap37 [6], in the series with MCF7 [8], in the series with MGC-803 [9], in the series on PC-3 [10] and in the series with A-375 [11] was more than 3 each time. Moreover, the Activity entry in series [7] is “Toxic”.
For `CC[C@@]1(O)C(=O)OCc2c1cc1n(c2=O)Cc2cc3cc(O)ccc3nc2-1`, the outcome in the series on MGC-803 [12] and in the series on MGC-803 [13] was Active.

The record behind these values is ChEMBL document CHEMBL3616471, “Synthesis and in vitro antitumor evaluation of betulin acid ester derivatives as novel apoptosis inducers” (Eur J Med Chem, 2015).
